The text below walks through data of ChEMBL document CHEMBL5715954, “Silencing c-Myc translation as a therapeutic strategy through targeting PI3Kδ and CK1ε in hematological malignancies” (Blood, 2017).

Common to all, as to set-up: scale not given: the % may be the effect or the level left
Experiment [1] concerns the target Glycogen synthase kinase-3 alpha (Homo sapiens) (UniProt P49840). The experiment in a line: Inhibition of human GSK3a assessed as enzyme activity at 1 uM using YRRAAVPPSPSLSRHSSPHQ(pS)EDEEE as substrate preincubated for 20 mins followed by [gamma-33P]-ATP addition and measured after 120 mins by radiometric Hot-SpotSM Kinase assay relative to control.
Experiment [2] deals with CDK1/Cyclin A (Homo sapiens) (UniProt P06493+P20248). The experiment in a line: Inhibition of human CDK1/cyclin A assessed as enzyme activity at 1 uM using RB Protein as substrate preincubated for 20 mins followed by [gamma-33P]-ATP addition and measured after 120 mins by radiometric Hot-SpotSM Kinase assay relative to control. Type of experiment: protein-complex assay.

Experiment [3] has as its target Serine/threonine-protein kinase N1 (Homo sapiens) (UniProt Q16512). Briefly: Inhibition of human PKN1 assessed as enzyme activity at 1 uM using KKLNRTLSVA as substrate preincubated for 20 mins followed by [gamma-33P]-ATP addition and measured after 120 mins by radiometric Hot-SpotSM Kinase assay relative to control.
In experiment [4] the target is Tyrosine-protein kinase Lck (Homo sapiens) (UniProt P06239). The experiment in a line: Inhibition of human LCK assessed as enzyme activity at 1 uM using poly[Glu:Tyr] (4:1) as substrate preincubated for 20 mins followed by [gamma-33P]-ATP addition and measured after 120 mins by radiometric Hot-SpotSM Kinase assay relative to control.
Experiment [5] deals with STE20-like serine/threonine-protein kinase (Homo sapiens) (UniProt Q9H2G2). The experiment in a line: Inhibition of human SLK assessed as enzyme activity at 1 uM using histone H3 as substrate preincubated for 20 mins followed by [gamma-33P]-ATP addition and measured after 120 mins by radiometric Hot-SpotSM Kinase assay relative to control.
The target in experiment [6] is T1, Tyrosine-protein kinase ZAP-70 (Homo sapiens) (UniProt P43403).
T1 sequence (whole entry): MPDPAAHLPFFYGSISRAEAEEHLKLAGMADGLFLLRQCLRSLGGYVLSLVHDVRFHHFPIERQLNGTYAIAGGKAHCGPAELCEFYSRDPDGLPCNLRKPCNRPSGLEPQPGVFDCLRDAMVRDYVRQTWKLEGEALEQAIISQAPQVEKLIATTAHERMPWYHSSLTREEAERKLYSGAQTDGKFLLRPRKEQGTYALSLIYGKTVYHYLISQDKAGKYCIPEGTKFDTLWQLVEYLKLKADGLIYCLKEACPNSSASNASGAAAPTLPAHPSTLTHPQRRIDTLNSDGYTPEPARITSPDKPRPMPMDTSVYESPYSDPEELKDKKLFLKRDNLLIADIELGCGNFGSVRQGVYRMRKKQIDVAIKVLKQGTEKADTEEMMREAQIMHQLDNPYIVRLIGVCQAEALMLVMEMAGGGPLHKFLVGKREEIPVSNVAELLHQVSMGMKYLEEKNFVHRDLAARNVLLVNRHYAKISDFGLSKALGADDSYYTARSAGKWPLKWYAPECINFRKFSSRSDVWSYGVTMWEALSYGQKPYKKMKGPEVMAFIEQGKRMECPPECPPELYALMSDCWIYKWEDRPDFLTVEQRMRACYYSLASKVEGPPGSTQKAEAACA
The experiment in a line: Inhibition of human ZAP70 assessed as enzyme activity at 1 uM using poly[Glu:Tyr] (4:1) as substrate preincubated for 20 mins followed by [gamma-33P]-ATP addition and measured after 120 mins by radiometric Hot-SpotSM Kinase assay relative to control.

Experiment [7] concerns the target Mitogen-activated protein kinase kinase kinase 1 (Homo sapiens) (UniProt Q13233). Briefly: Inhibition of human MEKK1 assessed as enzyme activity at 1 uM using myelin basic protein as substrate preincubated for 20 mins followed by [gamma-33P]-ATP addition and measured after 120 mins by radiometric Hot-SpotSM Kinase assay relative to control.
Experiment [8] deals with T2, Serine/threonine-protein kinase Nek11 (Homo sapiens) (UniProt Q8NG66).
T2 sequence (whole entry): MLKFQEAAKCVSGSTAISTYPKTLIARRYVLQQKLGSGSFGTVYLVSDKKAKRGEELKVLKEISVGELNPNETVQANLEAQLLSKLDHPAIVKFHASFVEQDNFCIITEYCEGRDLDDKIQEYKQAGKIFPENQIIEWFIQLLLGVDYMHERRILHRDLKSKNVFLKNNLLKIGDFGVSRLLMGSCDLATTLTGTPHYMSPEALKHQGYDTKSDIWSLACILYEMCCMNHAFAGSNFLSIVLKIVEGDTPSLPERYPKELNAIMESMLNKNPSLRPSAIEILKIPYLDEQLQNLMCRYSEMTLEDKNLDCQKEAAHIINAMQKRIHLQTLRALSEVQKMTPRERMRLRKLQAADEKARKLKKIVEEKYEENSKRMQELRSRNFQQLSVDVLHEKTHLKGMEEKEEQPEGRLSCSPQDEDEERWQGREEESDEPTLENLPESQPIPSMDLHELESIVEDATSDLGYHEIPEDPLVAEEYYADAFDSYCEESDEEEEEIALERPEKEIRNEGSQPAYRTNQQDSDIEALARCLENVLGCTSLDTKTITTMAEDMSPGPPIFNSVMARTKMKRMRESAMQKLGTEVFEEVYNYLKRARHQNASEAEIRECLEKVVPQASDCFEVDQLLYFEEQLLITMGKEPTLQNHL
The experiment in a line: Inhibition of human NEK11 assessed as enzyme activity at 1 uM using myelin basic protein as substrate preincubated for 20 mins followed by [gamma-33P]-ATP addition and measured after 120 mins by radiometric Hot-SpotSM Kinase assay relative to control.

Glycogen synthase kinase-3 alpha (Homo sapiens), sequence (P49840 2-483 limits assumed): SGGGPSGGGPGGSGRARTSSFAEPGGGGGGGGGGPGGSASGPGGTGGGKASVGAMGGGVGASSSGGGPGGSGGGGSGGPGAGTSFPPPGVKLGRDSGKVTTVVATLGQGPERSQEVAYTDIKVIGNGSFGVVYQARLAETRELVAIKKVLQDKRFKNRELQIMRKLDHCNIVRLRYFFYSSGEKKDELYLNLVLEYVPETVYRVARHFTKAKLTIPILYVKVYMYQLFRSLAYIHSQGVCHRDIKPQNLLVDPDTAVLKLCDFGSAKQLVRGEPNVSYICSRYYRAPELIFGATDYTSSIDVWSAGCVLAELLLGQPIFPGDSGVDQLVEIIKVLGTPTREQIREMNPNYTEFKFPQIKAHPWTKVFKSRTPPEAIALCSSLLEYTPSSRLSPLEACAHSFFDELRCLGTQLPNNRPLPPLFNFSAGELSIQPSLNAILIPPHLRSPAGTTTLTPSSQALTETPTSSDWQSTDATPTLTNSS
Tyrosine-protein kinase Lck (Homo sapiens), sequence (P06239 2-509 limits assumed): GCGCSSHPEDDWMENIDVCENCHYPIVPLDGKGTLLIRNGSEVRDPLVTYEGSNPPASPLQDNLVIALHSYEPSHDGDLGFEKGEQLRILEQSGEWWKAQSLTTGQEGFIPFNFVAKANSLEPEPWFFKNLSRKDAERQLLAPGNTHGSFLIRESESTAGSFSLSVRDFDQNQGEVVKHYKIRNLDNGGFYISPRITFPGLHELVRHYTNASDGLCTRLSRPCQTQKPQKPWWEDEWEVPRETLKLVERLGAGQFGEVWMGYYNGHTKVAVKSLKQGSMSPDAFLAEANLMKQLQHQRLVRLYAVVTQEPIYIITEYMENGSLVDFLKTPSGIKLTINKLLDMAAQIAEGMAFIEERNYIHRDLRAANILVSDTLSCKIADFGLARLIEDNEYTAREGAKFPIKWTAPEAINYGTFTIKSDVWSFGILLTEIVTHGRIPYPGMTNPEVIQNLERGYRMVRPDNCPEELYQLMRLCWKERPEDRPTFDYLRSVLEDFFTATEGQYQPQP
CDK1/Cyclin A (Homo sapiens), sequence (P06493 whole entry, looked up): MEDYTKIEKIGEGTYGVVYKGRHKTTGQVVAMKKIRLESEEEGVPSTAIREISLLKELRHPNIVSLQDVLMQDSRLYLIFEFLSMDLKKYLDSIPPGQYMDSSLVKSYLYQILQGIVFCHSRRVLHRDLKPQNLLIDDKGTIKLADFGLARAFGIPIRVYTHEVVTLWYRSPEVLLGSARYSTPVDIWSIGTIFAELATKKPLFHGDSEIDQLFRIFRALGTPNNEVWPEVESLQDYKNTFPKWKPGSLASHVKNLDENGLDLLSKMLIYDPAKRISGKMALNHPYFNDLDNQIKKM
CDK1/Cyclin A (Homo sapiens), sequence (P20248 whole entry, looked up): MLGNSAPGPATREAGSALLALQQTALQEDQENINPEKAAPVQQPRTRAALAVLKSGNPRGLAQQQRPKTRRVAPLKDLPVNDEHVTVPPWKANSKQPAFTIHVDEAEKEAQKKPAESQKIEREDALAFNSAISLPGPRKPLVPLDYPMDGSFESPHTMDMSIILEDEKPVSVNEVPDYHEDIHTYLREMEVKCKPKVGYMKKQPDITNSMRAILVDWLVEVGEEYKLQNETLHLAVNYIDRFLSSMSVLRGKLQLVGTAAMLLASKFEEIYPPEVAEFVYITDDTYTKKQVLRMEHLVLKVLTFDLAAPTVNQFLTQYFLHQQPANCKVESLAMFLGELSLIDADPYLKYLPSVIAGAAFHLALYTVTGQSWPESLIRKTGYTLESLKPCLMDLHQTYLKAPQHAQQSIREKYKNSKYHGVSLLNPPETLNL
Mitogen-activated protein kinase kinase kinase 1 (Homo sapiens), sequence (Q13233 whole entry): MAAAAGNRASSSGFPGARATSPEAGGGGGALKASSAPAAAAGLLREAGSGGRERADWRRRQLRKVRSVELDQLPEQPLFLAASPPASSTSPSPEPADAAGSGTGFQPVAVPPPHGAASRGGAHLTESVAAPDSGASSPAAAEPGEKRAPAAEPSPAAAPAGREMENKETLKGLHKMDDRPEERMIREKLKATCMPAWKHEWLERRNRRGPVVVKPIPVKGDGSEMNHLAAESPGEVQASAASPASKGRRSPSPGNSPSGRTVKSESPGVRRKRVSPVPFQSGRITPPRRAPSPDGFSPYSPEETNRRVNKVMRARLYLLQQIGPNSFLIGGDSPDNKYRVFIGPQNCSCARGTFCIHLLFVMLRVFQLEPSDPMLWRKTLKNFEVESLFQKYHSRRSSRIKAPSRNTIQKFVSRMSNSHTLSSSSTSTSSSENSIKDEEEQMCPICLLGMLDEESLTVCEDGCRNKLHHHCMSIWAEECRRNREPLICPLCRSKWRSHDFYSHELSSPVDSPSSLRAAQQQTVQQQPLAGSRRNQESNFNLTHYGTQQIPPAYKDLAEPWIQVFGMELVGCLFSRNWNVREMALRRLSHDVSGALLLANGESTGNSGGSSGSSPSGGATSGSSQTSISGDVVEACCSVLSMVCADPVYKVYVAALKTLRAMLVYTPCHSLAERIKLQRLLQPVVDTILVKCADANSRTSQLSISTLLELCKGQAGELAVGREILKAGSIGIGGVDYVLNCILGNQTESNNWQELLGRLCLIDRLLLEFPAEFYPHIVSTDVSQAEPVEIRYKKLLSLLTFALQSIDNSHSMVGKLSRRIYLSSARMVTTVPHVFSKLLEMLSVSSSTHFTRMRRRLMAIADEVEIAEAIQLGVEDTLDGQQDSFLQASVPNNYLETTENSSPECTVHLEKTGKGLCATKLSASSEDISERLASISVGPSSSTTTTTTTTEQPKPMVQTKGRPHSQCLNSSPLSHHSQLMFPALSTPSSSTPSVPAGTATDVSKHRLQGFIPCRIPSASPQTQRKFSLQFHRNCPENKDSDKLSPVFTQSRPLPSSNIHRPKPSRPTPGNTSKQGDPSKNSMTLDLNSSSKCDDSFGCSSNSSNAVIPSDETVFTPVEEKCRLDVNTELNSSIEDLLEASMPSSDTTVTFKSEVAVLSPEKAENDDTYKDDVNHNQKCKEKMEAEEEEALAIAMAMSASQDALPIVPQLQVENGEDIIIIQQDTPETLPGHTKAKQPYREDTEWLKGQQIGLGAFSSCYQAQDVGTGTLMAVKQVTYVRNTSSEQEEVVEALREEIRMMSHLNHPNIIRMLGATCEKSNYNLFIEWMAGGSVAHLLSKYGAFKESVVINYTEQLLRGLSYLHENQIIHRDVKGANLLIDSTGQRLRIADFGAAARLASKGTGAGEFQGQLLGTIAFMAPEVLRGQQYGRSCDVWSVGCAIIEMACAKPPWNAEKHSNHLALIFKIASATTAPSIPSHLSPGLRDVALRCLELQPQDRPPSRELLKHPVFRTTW
STE20-like serine/threonine-protein kinase (Homo sapiens), sequence (Q9H2G2 whole entry, looked up): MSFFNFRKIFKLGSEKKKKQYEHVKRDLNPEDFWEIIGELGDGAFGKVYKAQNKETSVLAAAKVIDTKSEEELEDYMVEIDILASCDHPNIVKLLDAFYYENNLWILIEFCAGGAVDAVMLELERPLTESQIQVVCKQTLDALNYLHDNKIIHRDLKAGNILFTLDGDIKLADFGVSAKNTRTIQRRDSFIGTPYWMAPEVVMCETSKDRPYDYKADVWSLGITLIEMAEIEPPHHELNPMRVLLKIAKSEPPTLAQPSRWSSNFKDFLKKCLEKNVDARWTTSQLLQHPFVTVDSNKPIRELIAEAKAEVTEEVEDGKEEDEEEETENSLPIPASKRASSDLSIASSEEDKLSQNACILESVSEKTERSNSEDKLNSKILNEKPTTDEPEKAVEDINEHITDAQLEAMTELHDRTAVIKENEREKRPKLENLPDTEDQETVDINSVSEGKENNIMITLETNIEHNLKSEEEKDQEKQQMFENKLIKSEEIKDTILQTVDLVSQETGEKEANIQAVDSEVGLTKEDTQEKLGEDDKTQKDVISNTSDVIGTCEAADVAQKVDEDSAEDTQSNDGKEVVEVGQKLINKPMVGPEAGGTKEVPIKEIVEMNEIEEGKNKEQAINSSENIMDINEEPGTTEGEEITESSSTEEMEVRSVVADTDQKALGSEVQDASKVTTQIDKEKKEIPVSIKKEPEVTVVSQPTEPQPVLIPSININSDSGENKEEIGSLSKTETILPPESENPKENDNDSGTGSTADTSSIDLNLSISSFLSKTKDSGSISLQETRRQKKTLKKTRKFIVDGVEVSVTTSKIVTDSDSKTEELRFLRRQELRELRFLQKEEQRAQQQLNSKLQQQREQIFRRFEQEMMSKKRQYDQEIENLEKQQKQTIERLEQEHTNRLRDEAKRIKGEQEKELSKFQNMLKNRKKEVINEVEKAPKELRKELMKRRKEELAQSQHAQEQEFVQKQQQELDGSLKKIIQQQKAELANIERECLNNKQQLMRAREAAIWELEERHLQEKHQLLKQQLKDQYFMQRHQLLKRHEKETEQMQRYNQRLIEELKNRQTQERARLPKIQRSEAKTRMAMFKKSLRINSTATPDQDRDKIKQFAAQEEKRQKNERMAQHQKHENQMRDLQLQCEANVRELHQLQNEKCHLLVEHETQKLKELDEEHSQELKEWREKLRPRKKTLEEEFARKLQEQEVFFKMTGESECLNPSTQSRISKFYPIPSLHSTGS

On to `C[C@H](Nc1ncnc2nc[nH]c12)c1cc2cccc(Cl)c2c(=O)n1-c1ccccc1`, for which the Activity amounted to 95.3% in experiment [1]; 95.7% in experiment [2]; 84% in experiment [3]; 94.7% in experiment [4]; 97.5% in experiment [5]; 99.7% in experiment [6]. For the same compound, the Activity was determined as 107% in experiment [7] and 90.1% in experiment [8].
Take `CC[C@H](Nc1ncnc2[nH]cnc12)c1nc2cccc(F)c2c(=O)n1-c1ccccc1`: the Activity in experiment [1] stood at 93.7%; in experiment [2], 95.5%; in experiment [3] it was 90.5%; in experiment [4], 88.5%; in experiment [5] it was 97.3%; in experiment [6], 100%. For the same compound, the results for the Activity in experiment [7] and in experiment [8] were 101% and 84.5%, respectively.
Regarding `CC(C)Oc1ccc(-c2nn([C@@H](C)c3oc4ccc(F)cc4c(=O)c3-c3cccc(F)c3)c3ncnc(N)c23)cc1F` [UMBRALISIB], the Activity turned out to be 104% in experiment [1]; 96.9% in experiment [2]; 92.8% in experiment [3]; 96.8% in experiment [4]; 94.5% in experiment [5]; 99.4% in experiment [6]. The Activity is 101% in experiment [7] and 84.8% in experiment [8].
